# Results from US5646249A, “Isolation and characterization of a novel chaperone protein” (The United States of America as represented by the …, priority 1994, dated 1997).
# Target: T1, human STCH, GST-STCH fusion protein representing STCH codons 4-471 (SEQ ID NO: 2) (Homo sapiens, UniProt P48723)
# T1 construct: near full-length GST-STCH fusion protein, representing STCH codons 4-471; made in house; host or cells: E. coli HB101
# T1 sequence (P48723 4-471): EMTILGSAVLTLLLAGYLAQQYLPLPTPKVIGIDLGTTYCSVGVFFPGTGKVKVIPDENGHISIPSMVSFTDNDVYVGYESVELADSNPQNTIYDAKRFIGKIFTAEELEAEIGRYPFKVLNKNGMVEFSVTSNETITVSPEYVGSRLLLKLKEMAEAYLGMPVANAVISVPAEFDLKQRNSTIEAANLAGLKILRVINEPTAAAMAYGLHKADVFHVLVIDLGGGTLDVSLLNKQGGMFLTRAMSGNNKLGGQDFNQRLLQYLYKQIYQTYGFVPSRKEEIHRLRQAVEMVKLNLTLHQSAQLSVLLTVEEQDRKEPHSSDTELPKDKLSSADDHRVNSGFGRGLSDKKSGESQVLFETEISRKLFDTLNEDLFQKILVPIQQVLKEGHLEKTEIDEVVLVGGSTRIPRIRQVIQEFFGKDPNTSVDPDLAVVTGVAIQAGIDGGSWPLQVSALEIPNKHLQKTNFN
# Assay: ATPase assay of purified GST-STCH fusion protein
# Format: biochemical
# Conditions: read-out: Km for the unstimulated STCH ATPase (ATP); unstimulated (no peptide), 37° C., recombinant GST-STCH codons 4-471
# Procedure: Inspection of the primary amino acid sequence of the STCH product predicts a functional ATPase molecule. ATPase activity was tested using a GST -Stch plasmid that encoded a functional fusion protein including STCH codons 4-471 (See Table II and SEQ ID NO: 1). A preferred strategy for preparing this fusion protein is provided in Example III and a preferred strategy for performing ATPase assays is provided in Example VI. To exclude contaminating sources of ATPase, the GST leader peptide and the GST-STCH affinity-purified fusion proteins were eluted off glutathione--Sepharose beads, then purified by anion-exchange chromatography (mono Q) and the protein composition of the column fractions was analyzed by SDS--PAGE. The peak ATPase activity of the GST --STCH product coincided with fractions 11 and 12. While no measurable ATPase activity was detected in fractions 11 and 12 from the GST leader sequence. These fractions were pooled from the GST--STCH sample and ATPase activity was measured in the presence or absence of two different peptides. […] The Km for the unstimulated STCH ATPase was 2-3 μM ATP and the measured ATPase activity was linear with respect to time and concentration over the range tested. […]
compound,measurement,value
Nc1ncnc2c1ncn2[C@@H]1O[C@H](COP(=O)(O)OP(=O)(O)OP(=O)(O)O)[C@@H](O)[C@H]1O [ATP],Km,2000 to 3000 nM
